Laboratory results as given in US7091185B2, “Periodic antimicrobial peptides” (Dow Global Technologies Inc., priority 2003, dated 2006).
Like-named read-outs stand apart in the source and are kept apart here.

Assays:
[1] = system: Staph. aureus ATCC 6538; test: HMARQ biocidal kill activity; assay type: cell-based; settings: Staph. aureus ATCC 6538 (gram+)
Method: (§1) Biocide efficacy protocols were improved by reducing sample size, organizing the test material into an array format, implementing most probable number (MPN) quantitation and using multi-channel liquid handling equipment. We call the new method “high-throughput microanalysis and rapid quantitation” or “HMARQ.” HMARQ is directly applicable to current industrial efficacy tests such as multi-cycle preservation challenge or time course disinfection tests.
(§2) HMARQ is performed in a high throughput plate, such as 96-well microtiter plates. Typical sample volumes have been reduced down to 200 to 300 μL, but can be reduced further if desired. In these samples, no more than 10% of the total volume will be composed of the biocide and organism solution, and all non-matrix additions are normalized for all samples.
(§3) The sample matrix is first inoculated with the desired concentration of microorganisms. Inoculated sample matrix is then added to the 96-well assay block containing the biocide(s) under study. Each sample block contains biocide treated samples and untreated control samples (lacking biocide). Once the samples are prepared, the entire block of samples is mixed by vortexing until each sample is homogenous. In general, the study starts once mixing is complete, and samples are removed as required for the analysis. When Kill Time testing (rate of biocide activity) is performed, the microorganisms are added after biocide addition to the samples, allowing for rapid mixing and analysis.
(§4) Bacterial concentration (CFU/mL) is determined using the most probable number method (MPN). The contaminated solution is serially diluted until the “no growth” endpoint is reached. The endpoint represents the MPN and is expressed in units of the bacterial concentration. A serial 1:10 dilution will yield a bacterial concentration resolution of 1 log and the log reduction is determined by comparing the concentration of organisms in a treated sample to the concentration of organisms in untreated samples. For example, if a sample requires four 1:10 dilutions before bacterial growth is lost then the MPN for bacterial concentration in the sample is less than or equal to 1×10^4 CFU/mL (1E4). […] This method of enumeration is generally applicable to all non-filamentous microorganisms.
(§5) Media included Tryptic Soy Broth (TSB) for bacteria and Sabouraud Dextrose Broth (SDB) for fungi. These are available commercially and prepared according to the manufacturers instructions. Indicator medium was TSB/R for bacteria and SDB/R for fungi. These were made by addition of 50 μM filter sterilized Resazurin to the sterilized and cooled medium. Tryptic Soy agar plates (TSA) and SDA slants were used to provide inoculant for bacterial and fungal cultures. The indicator dye appeared pink or white when bacterial growth was present.
(§6) Using the HMARQ test described above, periodic peptides were generated and tested for Kill Activity. In this experiment, a broader range of peptidezs were tested for activity. Units are expressed as ppm (μg/mL) needed for 3.5 log kill at 15 min or 24 hour and the results are shown below.

[2] = system: P. aeruginosa ATCC 15442; test: HMARQ biocidal kill activity; assay type: cell-based; settings: P. aeruginosa ATCC 15442 (gram−)
Method: as §1, §2, §3, §4, §5, §6

[3] = Red blood cell toxicity; assay type: cell-based; settings: red blood cells (RBC)
[4] = system: Red blood cells (RBC); test: Red blood cell toxicity; assay type: cell-based
[5] = system: HeLa cell line; test: HeLa MTS cellular reduction toxicity assay; assay type: cell-based; settings: for TX50: 24 h, MTS
Method: The RBC protocol was from Blondelle (2000) and is described generally as follows: The toxicity toward the HeLa cell line was determined using a MTS (3-(4-5-dimethylthiazol-2-yl)-5-(3carboxymethoxyphenyl)-2-(4-sulfophenyl)-2H-tetrazolium, sodium salt) cellular reduction assay. MTS (2 mg/mL) was prepared in Dulbecco PBS (pH 7.35), filtered, aliquoted and stored at minus 20° C. In 96 well flat bottomed plates, cell suspensions (250 μL of 6×10^4 cell/mL in each well) were incubated for 48 h at 37° C. (5% CO2 incubator). The peptides (50 μL) were then added to the cell monolayer (following aspiration of the media from each well and addition of 50 μL of Dulbecco's Modified Eagles Medium) at varying concentrations derived from serial 2-fold dilutions, and the plates incubated for 24 h at 37° C. (5% CO2 incubator). Proliferation was then determined by adding a solution of phenazine methosulfate (PMS: 0.92 mg/mL in DPBS) to MTS at a 1:20 ration just prior to the assay. Twenty microliters MTS-PMS solution were added to each well and the plates incubated for 1 h at 37° C. (5% CO2 incubator). The relative percent toxicity was determined by comparing the absorbance at 490 nm of each peptide to the absorbance of cells without peptide. The TX50 (concentration required for 50% toxicity) was calculated using a sigmoidal curve fitting software (Graphpad Prism).

[6] = system: P. aeruginosa ATCC 10145; settings: ATCC 10145
Method: (§7) The bacteria tested were P. aeruginosa American Type Culture Collection Number (ATCC) 10145, E. coli ATCC 2592, and S. aureus (methicillin reseistant) ATTC 33591.
(§8) All experiments were compared to bacterial growth under optimal growth conditions (37° C., pH 7.0, absence of additional salt, growth media—referred to as standard growth conditions). In each plate, no growth control (media alone), positive growth control (bacteria with no test sample), positive antimicrobial controls (agents with known antimicrobial activity) and test compounds were tested.
(§9) The plates were incubated overnight, and the relative percent growth determined by optical density at 620 nm (OD620) using a […] […] PLUS™. […] All samples were tested in duplicate and each assay was repeated at least twice. […] IC50 and MIC are reported in μg/ml.

[7] = system: E. coli ATCC 2592; settings: ATCC 2592
Method: as §7, §8, §9

[8] = system: S. aureus (methicillin resistant) ATCC 33591; settings: ATCC 33591
Method: as §7, §8, §9

[9] = system: Cr. Neoformans 32045; assay type: cell-based
Method: (§10) The MIC and IC50 values were determined by a broth microdilution method according to guidelines of the National Committee for Clinical Laboratory Standard as follows: In 96-well tissue culture plates, a fixed volume of bacterial suspension in 2× broth (as defined below) was added to the mixtures or individual compounds dispensed at concentrations varying from 1,000 to 1 μg/ml derived from serial two-fold dilutions in sterile water. The bacteria tested were P. aeruginosa American Type Culture Collection Number (ATCC) 10145, E. coli ATCC 2592, and S. aureus (methicillin reseistant) ATTC 33591.
(§11) The plates were incubated overnight, and the relative percent growth determined by optical density at 620 nm (OD620) using a TITERTEK MULTISKAN PLUS™. […] IC50 values were calculated using a sigmoidal curve fitting software program (GRAPHPAD,™ ISI Software,™ San Diego, Calif.). All samples were tested in duplicate and each assay was repeated at least twice. In the following table, KFAK is the repeat unit and multimers of KFAK were tested. IC50 and MIC are reported in μg/ml.
(§12) Because the antibacterial activity of the periodic peptides was so promising, further experiments were performed to determine if the periodic peptides also had antifungal activity. The experimental design was similar to that above, with accommodation made for fungal growth requirements, including the use of Sabouraud Dextrose Broth (SDB) and Sabouraud Dextrose Agar (SDA) slants.

[10] = system: C. albicans 10231; assay type: cell-based; settings: 10231
Method: as §10, §11, §12

[11] = RBCs, concentration required for 50% toxicity, read-out: TX50

Substance	ppm needed for 3.5 log kill at 15 min [1] [ppm]	ppm needed for 3.5 log kill at 24 hr [1] [ppm]	ppm needed for 3.5 log kill at 15 min [2] [ppm]	ppm needed for 3.5 log kill at 24 hr [2] [ppm]	HC50 at 24 h [3, 11] [µg/mL]	% kill at 250 μg/ml [4] [%]	% kill at 500 μg/ml [5] [%]	TX50 [5] [µg/mL]	IC50 [6] [µg/mL]	MIC [6] [µg/mL]	IC50 [7] [µg/mL]	MIC [7] [µg/mL]	IC50 [8] [µg/mL]	MIC [8] [µg/mL]	IC50 [9] [µg/mL]	MIC [9] [µg/mL]	IC50 [10] [µg/mL]	MIC [10] [µg/mL]	HC50 at 24 h [3] [µg/mL]
H-FKAFKAFKAFKAFKAFKAFKAFKA-OH [FKA (8), FKA FKA FKA FKA FKA FKA FKA FKA]	8	125	125	16	> 500	10	60.4	>500	19	25	7	16 to 32	74	>500	3.9	16 to 32	199	250 to 500	
H-FKAFKAFKAFKAFKAFKAFKAFKAFKA-OH [FKA (9), FKA FKA FKA FKA FKA FKA FKA FKA FKA]	8	125	4	4	> 500	24	20.9	389	16	20	4	31 to 62	17	31 to 62	16	62 to 125	195	250 to 500	
H-FKAFKAFKAFKAFKAFKAFKAFKAFKAFKA-OH [FKA (10), FKA FKA FKA FKA FKA FKA FKA FKA FKA FKA]	8	8	8	16	> 500	51	15.0	234	27	32	9	31 to 62	12	31 to 62	20	32 to 62	182	250 to 500	
H-KFAKKFAKKFAKKFAKKFAKKFAKKFAKKFAK-OH [KFAK (8), KFAK KFAK KFAK KFAK KFAK KFAK KFAK KFAK]	>500	8	31	31		48	18.2	249	19	20	12	16 to 32	40	125 to 250	4.1	8 to 16	105	125 to 250	> 500
H-KFKKFKKFKKFKKFKKFKKFKKFK-OH [KFK (8), KEK KFK KFK KFK KFK KFK KFK KFK]	>500	500	>500	>125	> 500	−6	84.2	>500	145	250	20	32 to 62	72	>250	25	40 to 62	113	125 to 250	
H-KFKKFKKFKKFKKFKKFKKFKKFKKFKKFK-OH [KFK (10), KFK KFK KFK KFK KFK KFK KEK KFK KFK KFK]	4	500	8	8	> 500	3	56.8	>500	31	62	10	12 to 16	59	>250	30	40 to 62	104	125 to 250	
H-KKAKKKAKKKAKKKAKKKAKKKAKKKAK-OH [KKAK (7), KKAK KKAK KKAK KKAK KKAK KKAK KKAK]	>500	125	16	16	> 500	−6	>87.9	>500	99	125	26	31 to 62	60		28	>63	>500	>500	
